Patent US11185073B2, “Microbiocidal quinoline (thio)carboxamide derivatives” (SYNGENTA PARTICIPATIONS AG, priority 2017, dated 2021)

How the values were obtained:
[1] = system: Fusarium culmorum; assay: whole plant or invertebrate; format: in vivo; conditions: in Triticum aestivum, read-out: control of Fusarium culmorum
[2] = system: Fusarium culmorum; assay: microbe, parasite or virus in culture; format: cell-based; conditions: 72 h, read-out: control of Fusarium culmorum
[3] = system: Botryotinia fuckeliana (Botrytis cinerea); assay: Botryotinia fuckeliana (Botrytis cinerea) / liquid culture (gray mould); format: cell-based; conditions: 72 h, growth inhibition photometrically 3-4 days after application, compared to untreated control
[4] = system: Gibberella zeae (Fusarium graminearum); assay: whole plant or invertebrate; format: in vivo; conditions: in Triticum aestivum, read-out: control of Gibberella zeae
[5] = system: Glomerella lagenarium (Colletotrichum lagenarium); assay: Glomerella lagenarium (Colletotrichum lagenarium) / liquid culture (anthracnose); format: cell-based; conditions: Colletotrichum orbiculare, growth inhibition photometrically 3-4 days after application, compared to untreated control
[6] = system: Monographella nivalis (Microdochium nivale); assay: Monographella nivalis (Microdochium nivale) / liquid culture (foot rot cereals); format: cell-based; conditions: 96 h, growth inhibition photometrically 4-5 days after application, compared to untreated control
[7] = system: Magnaporthe grisea (Pyricularia oryzae); assay: microbe, parasite or virus in culture; format: cell-based; conditions: 72 h, read-out: control of Magnaporthe grisea

CC(COc1ccccc1)(CC(F)(F)F)NC(=O)c1cnc2c(F)cccc2c1 (stereo not shown) [E.019, 8-fluoro-N-[3,3,3-trifluoro-1-methyl-1-(phenoxy-methyl)propyl]-quinoline-3-carboxamide]
≥ 80%: pest or weed control at 200 ppm [1] | inhibition of growth at 20 ppm [2] | inhibition of growth at 20 ppm [3] | pest or weed control at 200 ppm [4] | inhibition of growth at 20 ppm [5] | inhibition of growth at 20 ppm [6] | inhibition of growth at 20 ppm [7]

CC1(CC(C)(COCc2ccccc2)NC(=O)c2cnc3c(F)cccc3c2)CC1 (stereo not shown) [E.018, N-[1-(benzyloxy-methyl)-1-methyl-2-(1-methylcyclo-propyl)ethyl]-8-fluoro-quinoline-3-carboxamide]
≥ 80%: inhibition of growth at 20 ppm [2] | inhibition of growth at 20 ppm [3] | inhibition of growth at 20 ppm [6] | inhibition of growth at 20 ppm [7]

CC(COC1CCC1)(CC(F)(F)F)NC(=O)c1cnc2c(F)cccc2c1 (stereo in doubt) [E.014, N-[(1S)-1-(cyclo-butoxymethyl)-3,3,3-trifluoro-1-methyl-propyl]-8-fluoro-quinoline-3-carboxamide]
≥ 80%: pest or weed control at 200 ppm [1] | inhibition of growth at 20 ppm [2] | inhibition of growth at 20 ppm [3] | pest or weed control at 200 ppm [4] | inhibition of growth at 20 ppm [5]

CC(COC1(C)CCCCC1)(CC(F)(F)F)NC(=O)c1cnc2c(F)cccc2c1 (stereo not shown) [E.015, 8-fluoro-N-[3,3,3-trifluoro-1-methyl-1-[(1-methylcyclo-hexoxy)methyl]-propyl]quinoline-3-carboxamide]
≥ 80%: inhibition of growth at 20 ppm [2] | inhibition of growth at 20 ppm [3] | inhibition of growth at 20 ppm [5] | inhibition of growth at 20 ppm [7]

CCCCCCCCC(C)(COC)NC(=O)c1cnc2c(F)cccc2c1 (stereo not shown) [E.033, 8-fluoro-N-[1-(methoxymethyl)-1-methyl-nonyl]-quinoline-3-carboxamide]
≥ 80%: inhibition of growth at 20 ppm [2] | inhibition of growth at 20 ppm [3] | pest or weed control at 200 ppm [4] | inhibition of growth at 20 ppm [5] | inhibition of growth at 20 ppm [6]

CC(COC1CCC1)(CC(F)(F)F)NC(=O)c1cnc2c(F)cccc2c1 (stereo not shown) [E.021, N-[1-(cyclobutoxy-methyl)-3,3,3-trifluoro-1-methyl-propyl]-8-fluoro-quinoline-3-carboxamide]
≥ 80%: inhibition of growth at 20 ppm [2] | inhibition of growth at 20 ppm [3] | inhibition of growth at 20 ppm [5] | inhibition of growth at 20 ppm [7]

CC(COC1CCCCC1)(CC(F)(F)F)NC(=O)c1cnc2c(F)cccc2c1 (stereo in doubt) [E.017, N-[(1S)-1-(cyclo-hexoxymethyl)-3,3,3-trifluoro-1-methyl-propyl]-8-fluoro-quinoline-3-carboxamide]
≥ 80%: pest or weed control at 200 ppm [4]

CC(C)CC(C)(COC1CCC1)NC(=O)c1cnc2c(F)cccc2c1 (stereo not shown) [E.023, N-[1-(cyclo-butoxymethyl)-1,3-dimethyl-butyl]-8-fluoro-quinoline-3-carboxamide]
≥ 80%: pest or weed control at 200 ppm [1] | inhibition of growth at 20 ppm [2] | inhibition of growth at 20 ppm [3] | pest or weed control at 200 ppm [4] | inhibition of growth at 20 ppm [5] | inhibition of growth at 20 ppm [6] | inhibition of growth at 20 ppm [7]

CC(C)(C)CC(C)(COCC1CC1)NC(=O)c1cnc2c(F)cccc2c1 (stereo not shown) [E.006, N-[1-(cyclo-propylmethoxy-methyl)-1,3,3-trimethylbutyl]-8-fluoro-quinoline-3-carboxamide]
≥ 80%: pest or weed control at 200 ppm [1] | inhibition of growth at 20 ppm [2] | inhibition of growth at 20 ppm [3] | inhibition of growth at 20 ppm [5] | inhibition of growth at 20 ppm [6] | inhibition of growth at 20 ppm [7]

CC(C)CC(C)(COc1ccccc1)NC(=O)c1cnc2c(F)cccc2c1 (stereo not shown) [E.028, N-[1,3-dimethyl-1-(phenoxymethyl)-butyl]-8-fluoro-quinoline-3-carboxamide]
≥ 80%: pest or weed control at 200 ppm [1] | inhibition of growth at 20 ppm [2] | inhibition of growth at 20 ppm [3] | inhibition of growth at 20 ppm [5] | inhibition of growth at 20 ppm [6]

CC(C)COCC(C)(CC(C)C)NC(=O)c1cnc2c(F)cccc2c1 (stereo not shown) [E.025, 8-fluoro-N-[1-(iso-butoxymethyl)-1,3-dimethyl-butyl]-quinoline-3-carboxamide]
≥ 80%: pest or weed control at 200 ppm [1] | inhibition of growth at 20 ppm [2] | inhibition of growth at 20 ppm [3] | pest or weed control at 200 ppm [4] | inhibition of growth at 20 ppm [5] | inhibition of growth at 20 ppm [6] | inhibition of growth at 20 ppm [7]

CC(COC1(C)CCCC1)(CC(F)(F)F)NC(=O)c1cnc2c(F)cccc2c1 (stereo not shown) [E.010]
≥ 80%: pest or weed control at 200 ppm [1] | inhibition of growth at 20 ppm [2] | inhibition of growth at 20 ppm [3] | pest or weed control at 200 ppm [4] | inhibition of growth at 20 ppm [5] | inhibition of growth at 20 ppm [6]

C[C@@](COC1CCC1)(CC(F)(F)F)NC(=O)c1cnc2c(F)cccc2c1 [E.013, N-[(1S)-1-(cyclo-butoxymethyl)-3,3,3-trifluoro-1-methyl-propyl]-8-fluoro-quinoline-3-carboxamide]
≥ 80%: pest or weed control at 200 ppm [1] | inhibition of growth at 20 ppm [2] | inhibition of growth at 20 ppm [3] | inhibition of growth at 20 ppm [5] | inhibition of growth at 20 ppm [6]

Cc1nc2c(F)cccc2cc1C(=O)NC(C)(COC1CCC1)CC(F)(F)F (stereo not shown) [E.009, N-[1-(cyclo-butoxymethyl)-3,3,3-trifluoro-1-methyl-propyl]-8-fluoro-2-methyl-qiuinoline-3-carboxamide]
≥ 80%: inhibition of growth at 20 ppm [2] | inhibition of growth at 20 ppm [3] | inhibition of growth at 20 ppm [5] | inhibition of growth at 20 ppm [7]

CCC(CC)OCC(C)(CC(C)C)NC(=O)c1cnc2c(F)cccc2c1 (stereo not shown) [E.022, N-[1-(1-ethyl-propoxymethyl)-1,3-dimethyl-butyl]-8-fluoro-quinoline-3-carboxamide]
≥ 80%: pest or weed control at 200 ppm [1] | inhibition of growth at 20 ppm [2] | inhibition of growth at 20 ppm [3] | inhibition of growth at 20 ppm [5] | inhibition of growth at 20 ppm [6] | inhibition of growth at 20 ppm [7]

CC(C)CC(C)(COC1CCCC1)NC(=O)c1cnc2c(F)cccc2c1 (stereo not shown) [E.031, N-[1-(cyclopentoxy-methyl)-1,3-dimethyl-butyl]-8-fluoro-quinoline-3-carboxamide]
≥ 80%: pest or weed control at 200 ppm [1] | inhibition of growth at 20 ppm [2] | inhibition of growth at 20 ppm [3] | inhibition of growth at 20 ppm [5] | inhibition of growth at 20 ppm [6] | inhibition of growth at 20 ppm [7]

Cc1cccc2cc(C(=O)NC(C)(COC3CCC3)CC(F)(F)F)cnc12 (stereo not shown) [E.011]
≥ 80%: pest or weed control at 200 ppm [1] | inhibition of growth at 20 ppm [2] | inhibition of growth at 20 ppm [3] | inhibition of growth at 20 ppm [5] | inhibition of growth at 20 ppm [6] | inhibition of growth at 20 ppm [7]

CC(C)CC(C)(COC1CCCCC1)NC(=O)c1cnc2c(F)cccc2c1 (stereo not shown) [E.029, N-[1-(cyclohexoxy-methyl)-1,3-dimethyl-butyl]-8-fluoro-quinoline-3-carboxamide]
≥ 80%: pest or weed control at 200 ppm [1] | inhibition of growth at 20 ppm [2] | inhibition of growth at 20 ppm [3] | inhibition of growth at 20 ppm [5] | inhibition of growth at 20 ppm [6] | inhibition of growth at 20 ppm [7]

CC(C)CC(C)(COC(C)C)NC(=O)c1cnc2c(F)cccc2c1 (stereo not shown) [E.024, 8-fluoro-N-[1-(iso-propoxymethyl)-1,3-dimethyl-butyl]quinoline-3-carboxamide]
≥ 80%: pest or weed control at 200 ppm [1] | inhibition of growth at 20 ppm [2] | inhibition of growth at 20 ppm [3] | pest or weed control at 200 ppm [4] | inhibition of growth at 20 ppm [5] | inhibition of growth at 20 ppm [7]
